# Legend:
# panel of 442 kinases [1] = target: T1, panel of 442 kinases (Homo sapiens, UniProt Q12852); type: binding; settings: Compound Concentration 10 µM
# T1 construct: purchased KINOMEscan
# T1 sequence (Q12852 1-859): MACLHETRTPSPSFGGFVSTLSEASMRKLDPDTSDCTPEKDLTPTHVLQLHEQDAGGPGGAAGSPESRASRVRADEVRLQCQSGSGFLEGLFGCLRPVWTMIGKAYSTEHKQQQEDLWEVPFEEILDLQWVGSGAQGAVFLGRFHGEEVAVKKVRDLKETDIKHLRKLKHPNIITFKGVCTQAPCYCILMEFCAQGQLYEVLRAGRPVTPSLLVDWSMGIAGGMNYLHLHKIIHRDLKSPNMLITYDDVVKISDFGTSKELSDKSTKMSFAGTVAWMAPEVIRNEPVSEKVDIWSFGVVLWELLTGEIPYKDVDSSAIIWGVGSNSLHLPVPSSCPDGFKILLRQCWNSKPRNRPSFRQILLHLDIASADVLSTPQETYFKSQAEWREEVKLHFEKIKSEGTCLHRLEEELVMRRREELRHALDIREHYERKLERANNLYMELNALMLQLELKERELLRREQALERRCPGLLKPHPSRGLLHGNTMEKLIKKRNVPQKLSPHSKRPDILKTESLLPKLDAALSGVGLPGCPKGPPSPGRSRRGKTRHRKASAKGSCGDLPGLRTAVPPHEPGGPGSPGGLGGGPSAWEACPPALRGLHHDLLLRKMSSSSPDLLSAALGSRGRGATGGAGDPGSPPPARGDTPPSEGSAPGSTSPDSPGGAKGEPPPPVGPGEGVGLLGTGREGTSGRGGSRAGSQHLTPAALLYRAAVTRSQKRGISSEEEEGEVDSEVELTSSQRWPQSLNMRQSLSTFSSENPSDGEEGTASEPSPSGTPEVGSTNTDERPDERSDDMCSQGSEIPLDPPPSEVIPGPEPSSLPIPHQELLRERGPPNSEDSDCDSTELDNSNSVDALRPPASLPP
# Source text: (§1) We assessed the selectivity of members of this scaffold using the KINOMEscan methodology across a near comprehensive panel of 442 kinases [[18,27]].
# panel of 442 kinases [2] = target: T2, panel of 442 kinases (Homo sapiens, UniProt P24941); type: binding; settings: Compound Concentration 10 µM
# T2 construct: purchased KINOMEscan
# Source text: as §1
Structure (SMILES),KINOMEscan: DLK (panel of 442 kinases [1]),KINOMEscan: CDK2 (panel of 442 kinases [2])
COc1cc(C(=O)N2CCC(N3CCN(C)CC3)CC2)ccc1Nc1ncc2c(n1)N(C)c1ccccc1C(=O)N2C [15 (LRRK2-IN-1)],81,100
COc1cc(C(=O)N2CCC(N3CCN(C)CC3)CC2)ccc1Nc1ncc2c(n1)N1CCc3cccc(c31)C(=O)N2C [Compound 24],78,95
"COc1cc(C(=O)N2CCC(N3CCN(C)CC3)CC2)ccc1Nc1ncc2c(n1)N(C1CCCC1)c1ccccc1C(=O)N2C [Compound 25, 11-cyclopentyl-2-((2-methoxy-4-(4-(4-methylpiperazin-1-yl)piperidine-1-carbonyl)phenyl)amino)-5-methyl-5H-benzo[e]pyrimido[5,4-b][1,4]diazepin-6(11H)-one]",62,96
CCOc1cc(C(=O)N2CCC(N3CCN(C)CC3)CC2)ccc1Nc1ncc2c(n1)N(C1CCCC1)c1ccccc1C(=O)N2C [Compound 26],100,100
